Test [1] relates to SARS-CoV-2 Beta pseudovirus.
Test [2] has as its system SARS-CoV-2 BA.2.9 pseudovirus.
The test system of test [3] is SARS-CoV-2 BA.3 pseudovirus.
Test [4] concerns SARS-CoV-2 Alpha pseudovirus.
For test [5], the system named is SARS-CoV-2 BA.2.2 pseudovirus.
Test [6] deals with SARS-CoV-2 BQ.1 pseudovirus.
Test [7] concerns SARS-CoV-2 BA.2 pseudovirus.
Test [8] concerns SARS-CoV-2 prototype pseudovirus.
Test [9] relates to SARS-CoV-2 Gamma pseudovirus.
In test [10] the test system is SARS-CoV-2 Delta pseudovirus.
In test [11] the test system is SARS-CoV-2 BA.1 pseudovirus.
The test system of test [12] is SARS-CoV-2 BA.2.12.1 pseudovirus.
In test [13] the test system is SARS-CoV-2 BA.2.75 pseudovirus.
Test [14] relates to SARS-CoV-2 BA.4.6 pseudovirus.
In test [15] the test system is SARS-CoV-2 Lambda pseudovirus.
For test [16], the system named is SARS-CoV-2 BA.5 pseudovirus.
Test [17] has as its system SARS-CoV-2 XBB pseudovirus.
The subject of test [18] is SARS-CoV-2 BF.7 pseudovirus.
The test system of test [19] is coronavirus pseudoviruses such as 2019-nCoV. The following applies: verified in Chinese Patent Application No. CN202180001804.1; cited from earlier work.

In general, IC50 refers to the concentration needed to halve the response being measured. Higher therefore signals lower potency. As to `CC[C@H](C)[C@H](NC(=O)[C@H](C)NC(=O)[C@H](CCC(=O)O)NC(=O)[C@H](CCC(=O)O)NC(=O)[C@H](CC(C)C)NC(=O)[C@H](CCCCN)NC(=O)[C@H](CCCCN)NC(=O)[C@H](CCSC)NC(=O)[C@H](CCC(=O)O)NC(=O)[C@H](Cc1ccc(O)cc1)NC(=O)[C@H](CCC(=O)O)NC(=O)[C@H](CC(C)C)NC(=O)[C@H](CC(=O)O)NC(=O)[C@H](CC(C)C)NC(=O)[C@H](Cc1ccccc1)NC(=O)[C@@H](NC(=O)[C@@H](NC(=O)[C@H](CC(N)=O)NC(=O)[C@@H](NC(=O)[C@H](CCC(N)=O)NC(=O)[C@H](CC(=O)O)NC(=O)[C@H](CC(C)C)NC(=O)[C@@H](N)CO)[C@@H](C)CC)C(C)C)[C@@H](C)O)C(=O)N[C@@H](CCCCN)C(=O)N[C@@H](CCCCN)C(=O)N[C@@H](CC(C)C)C(=O)N[C@@H](CCC(=O)O)C(=O)N[C@@H](CCC(=O)O)C(=O)N[C@@H](CO)C(=O)N[C@@H](Cc1ccc(O)cc1)C(=O)N[C@H](C(=O)N[C@@H](CC(=O)O)C(=O)N[C@@H](CC(C)C)C(=O)N[C@@H](CCCCN)C(=O)N[C@@H](CCC(=O)O)C(=O)N[C@@H](CC(C)C)C(=O)O)[C@@H](C)CC` [EK1], the IC50 in test [1] is 257 nM; in [2], 199 nM; in test [3] it was 136 nM; in the test with WIV1 pseudovirus, 2450 nM; in test [4], 268 nM; in [5], 162 nM. Also, the IC50 is 136 nM in [6]; 1070 nM with HCoV-NL63 pseudovirus; 841 nM in the test on SARS-CoV pseudovirus; 297 nM in test [7]; 186 nM in test [8]; 277 nM in test [9]. Also, the concentration for half-maximal inhibition (IC50) was found to be 1340 nM in the test on Rs3367 pseudovirus; 150 nM in test [10]; 70.5 nM in test [11]; 342 nM in test [12]; 331 nM in test [13]; 473 nM in test [14]. The IC50 in test [15] stood at 995 nM; in test [16], 568 nM; in [17] it was 233 nM; in test [18], 584 nM.
“SLDQINVTFLDLEYEMKKLEEAIKKLEESYIDLKEL-GSG-DPEG4-K(palmitic) [EK1-palmitic]”: the “inhibitory activity against coronavirus pseudoviruses” value in test [19] was “possess inhibitory activity”.
Take “SLDQINVTFLDLEYEMKKLEEAIKKLEESYIDLKEL-GSGSG-DPEG4-C(cholesterol) [EK1-chol]”: in [19], the “inhibitory activity against coronavirus pseudoviruses” value was “possess inhibitory activity”.

The values are drawn from patent publication EP4782466A1, “FUSION PROTEIN FOR INACTIVATING CORONAVIRUS AND USE THEREOF” (priority 2023, dated 2025).
